Laboratory results taken from patent US8367709B2, “Dipeptide analogs as coagulation factor inhibitors” (priority 2007, dated 2013).
Counter-ions that a name gives are not always drawn.

Biological target: T1, purified human Factor XIa (Homo sapiens, UniProt P03951)
T1 construct: purchased Haematologic Technologies
Experiment: Factor XIa assay (chromogenic substrate S-2366 hydrolysis, Ki)
Format: biochemical
Conditions: not given
Experimental: The effectiveness of compounds of the present invention as inhibitors of the coagulation factors XIa, VIIa, IXa, Xa, XIIa, plasma kallikrein or thrombin, can be determined using a relevant purified serine protease, respectively, and an appropriate synthetic substrate. The rate of hydrolysis of the chromogenic or fluorogenic substrate by the relevant serine protease was measured both in the absence and presence of compounds of the present invention. […] A decrease in the rate of absorbance or fluorescence change in the presence of inhibitor is indicative of enzyme inhibition. Such methods are known to one skilled in the art. The results of this assay are expressed as the inhibitory constant, Ki.
Values of Ki were determined by allowing the protease to react with the substrate in the presence of the inhibitor. Reactions were allowed to go for periods of 20-180 minutes (depending on the protease) and the velocities (rate of absorbance or fluorescence change versus time) were measured. The following relationships were used to calculate Ki values:
vs/vo=A+((B−A)/1+((IC50/(I)^n))) and […]

T1 sequence (P03951 19-387): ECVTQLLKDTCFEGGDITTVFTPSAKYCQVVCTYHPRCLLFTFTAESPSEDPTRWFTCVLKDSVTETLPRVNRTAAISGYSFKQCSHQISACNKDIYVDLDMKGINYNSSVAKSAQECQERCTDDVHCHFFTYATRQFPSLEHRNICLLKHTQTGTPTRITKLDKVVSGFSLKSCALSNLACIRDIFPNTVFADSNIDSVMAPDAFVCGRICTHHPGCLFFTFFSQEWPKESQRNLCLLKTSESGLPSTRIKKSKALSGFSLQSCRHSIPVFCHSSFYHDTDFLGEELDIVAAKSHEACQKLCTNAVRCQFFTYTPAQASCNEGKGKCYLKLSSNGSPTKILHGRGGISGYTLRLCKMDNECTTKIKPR
T1 sequence (P03951 388-625): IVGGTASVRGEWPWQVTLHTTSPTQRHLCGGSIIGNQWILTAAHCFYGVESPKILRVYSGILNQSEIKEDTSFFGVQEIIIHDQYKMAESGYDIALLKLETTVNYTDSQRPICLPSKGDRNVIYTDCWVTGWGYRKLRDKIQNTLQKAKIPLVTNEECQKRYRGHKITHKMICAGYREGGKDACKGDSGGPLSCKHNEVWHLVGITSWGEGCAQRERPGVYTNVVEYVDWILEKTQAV

**Q.** With `CCOC(=O)Cc1ccc(NC(=O)[C@H](Cc2ccccc2)NC(=O)CCc2cc(Cl)ccc2-n2cnnn2)cc1` [Example 1, (S)-ethyl 2-(4-(2-(3-(5-chloro-2-(1H-tetrazol-1-yl)phenyl)propan-amideo)-3-phenylpropanamido)phenyl)acetate] as the compound, how does the Ki read?
**A.** 140 nM

**Q.** Which Ki does the source give for `O=C(/C=C/c1c(F)ccc(Cl)c1F)N[C@@H](Cc1ccccc1)C(=O)Nc1ccc(C(=O)O)cc1` [Example 15, 4-{(S)-2-[(E)-3-(3-chloro-2,6-difluoro-phenyl)-acryloylamino]-3-phenyl-propionylamino}-benzoic acid] here?
**A.** 291 nM

**Q.** How did the Ki turn out when `C[C@H](NC(=O)/C=C/c1cc(Cl)ccc1-n1cnnn1)C(=O)Nc1ccc(CC(=O)O)cc1` [Example 51, (4-{(S)-2-[(E)-3-(5-chloro-2-tetrazol-1-yl-phenyl)-acryloylamino]-propionylamino}-phenyl)-acetic acid] was run?
**A.** 317 nM

**Q.** Which Ki does the source give for `O=C(/C=C/c1c(F)ccc(Cl)c1F)N[C@@H](Cc1ccccc1)C(=O)Nc1ccc2cn[nH]c2c1` [Example 57, (E)-3-(3-chloro-2,6-difluoro-phenyl)-N—[(S)-1-(1H-indazol-6-ylcarbamoyl)-2-phenyl-ethyl]-acrylamide] here?
**A.** 3570 nM

**Q.** Which Ki does the source give for `NCc1ccc(Cl)cc1/C=C/C(=O)N[C@@H](Cc1ccccc1)C(=O)Nc1ccc(C(=O)O)cc1` [Example 83, (S,E)-4-(2-(3-(2-(aminomethyl)-5-chlorophenyl)acrylamido)-3-phenylpropanamido)benzoic acid, TFA salt] here?
**A.** 63.9 nM

**Q.** Which Ki does the source give for `COC(=O)c1ccc2nc(NC(=O)[C@H](Cc3ccccc3)NC(=O)/C=C/c3cc(Cl)ccc3-n3cnnn3)nn2c1` [Example 92, (S,E)-methyl 2-(2-(3-(5-chloro-2-(1H-tetrazol-1-yl)phenyl)acrylamido)-3-phenylpropanamido)-[1,2,4]triazolo[1,5-a]pyridine-6-carboxylate] here?
**A.** 53.9 nM

**Q.** For `COC(=O)Nc1ccc2c(c1)CCN(C(=O)[C@H](Cc1ccccc1)NC(=O)/C=C/c1cc(Cl)ccc1-n1cnnn1)C2` [Example 127, (S,E)-methyl 2-(2-(3-(5-chloro-2-(1H-tetrazol-1-yl)phenyl)acrylamido)-3-phenylpropanoyl)-1,2,3,4-tetrahydroisoquinolin-6-ylcarbamate], which Ki is on record?
**A.** 7800 nM

**Q.** Which Ki does the source give for `O=C(/C=C/c1cc(Cl)ccc1-n1cnnn1)N[C@@H](Cc1ccccc1)C(=O)Nc1cccn2c(C(F)(F)F)nnc12` [Example 142, (S,E)-3-(5-chloro-2-(1H-tetrazol-1-yl)phenyl)-N-(1-oxo-3-phenyl-1-(3-(trifluoromethyl)-[1,2,4]-triazolo[4,3-a]pyridin-8-ylamino)propan-2-yl)acrylamide] here?
**A.** 3850 nM

**Q.** How did the Ki turn out when `O=C(N[C@@H](Cc1ccccc1)C(=O)NCCc1cc(Cl)ccc1-n1cnnn1)c1n[nH]c2ccccc12` [Example 149, (S)—N-(1-(5-chloro-2-(1H-tetrazol-1-yl)phenethylamino)-1-oxo-3-phenylpropan-2-yl)-1H-indazole-3-carboxamide] was run?
**A.** 6500 nM

**Q.** How did the Ki turn out when `O=C1CNC(=O)c2ccc(C(=O)N[C@@H](Cc3ccccc3)C(=O)NCCc3cc(Cl)ccc3-n3cnnn3)cc2N1` [Example 187, (S)—N-(1-(5-chloro-2-(1H-tetrazol-1-yl)phenethylamino)-1-oxo-3-phenylpropan-2-yl)-2,5-dioxo-2,3,4,5-tetrahydro-1H-benzo[e][1,4]diazepine-8-carboxamide] was run?
**A.** 9370 nM

**Q.** `O=C(/C=C/c1cc(Cl)ccc1-n1cnnn1)N[C@@H](Cc1ccccc1)C(=O)N[C@@H]1CCCCNC1=O` [Example 196] was tested. Which Ki did it give?
**A.** 8320 nM

**Q.** With `Nc1nc2ccc(C(=O)N[C@@H](Cc3ccccc3)C(=O)NCCc3cc(Cl)ccc3-n3cnnn3)cc2s1` [Example 204, (S)-2-amino-N-(1-(5-chloro-2-(1H-tetrazol-1-yl)phenethylamino)-1-oxo-3-phenylpropan-2-yl)benzo[d]thiazole-6-carboxamide, TFA salt] as the compound, how does the Ki read?
**A.** 27.6 nM

**Q.** For `O=C1CSc2cc(C(=O)N[C@@H](Cc3ccccc3)C(=O)NCCc3cc(Cl)ccc3-n3cnnn3)ccc2N1` [Example 206, (S)—N-(1-(5-chloro-2-(1H-tetrazol-1-yl)phenethylamino)-1-oxo-3-phenylpropan-2-yl)-3-oxo-3,4-dihydro-2H-benzo[b][1,4]thiazine-7-carboxamide], which Ki is on record?
**A.** 19.5 nM

**Q.** How did the Ki turn out when `COC(=O)c1ccc(NC(=O)[C@H](Cc2cc(C)n(C)n2)NC(=O)/C=C/c2c(-n3cnnn3)ccc(Cl)c2F)nc1` [Example 216, (S,E)-methyl 6-(2-(3-(3-chloro-2-fluoro-6-(1H-tetrazol-1-yl)phenyl)acrylamido)-3-(1,5-dimethyl-1H-pyrazol-3-yl)propanamido)nicotinate, TFA salt] was run?
**A.** 65.9 nM

Same assay, conditions: purified human Factor XIa 75-200 pM, substrate S-2366, 50 mM HEPES pH 7.4; read-out: Factor XIa Ki

**Q.** With `Nc1n[nH]c2cc(NC(=O)[C@H](Cc3ccccc3)NC(=O)C[S+]([O-])c3cc(Cl)ccc3-n3cnnn3)ccc12` (single isomer, unassigned; isomer b) [Example 133] as the compound, how does the Ki read?
**A.** 672 nM

**Q.** With `COC(=O)Nc1ccc(NC(=O)[C@H](Cc2ccccc2)NC(=O)/C=C/c2cc(Cl)ccc2-n2cnnn2)c(Cl)c1` [Example 14, (3-chloro-4-{(S)-2-[(E)-3-(5-chloro-2-tetrazol-1-yl-phenyl)-acryloylamino]-3-phenyl-propionylamino}-phenyl)-carbamic acid methyl ester] as the compound, how does the Ki read?
**A.** 2960 nM

**Q.** `O=C(/C=C/c1cc(Cl)ccc1-n1cnnn1)N[C@@H](Cc1ccccc1)C(=O)Nc1ncc(C(=O)O)s1` [Example 21, 2-{(S)-2-[(E)-3-(5-chloro-2-tetrazol-1-yl-phenyl)-acryloylamino]-3-phenyl-propionylamino}-thiazole-5-carboxylic acid] was tested. Which Ki did it give?
**A.** 105 nM

**Q.** Which Ki does the source give for `O=C(/C=C/c1cc(Cl)ccc1-n1cnnn1)N[C@@H](Cc1ccccc1)C(=O)Nc1ccc2[nH]ncc2c1` [Example 30, (E)-3-(5-chloro-2-tetrazol-1-yl-phenyl)-N—[(S)-1-(1H-indazol-5-ylcarbamoyl)-2-phenyl-ethyl]-acrylamide] here?
**A.** 12.7 nM

**Q.** With `O=C(/C=C/c1cc(Cl)ccc1-n1cnnn1)N[C@@H](Cc1ccccc1)C(=O)Nc1ccc2c(=O)[nH][nH]c(=O)c2c1` [Example 36, (E)-3-(5-chloro-2-tetrazol-1-yl-phenyl)-N—[(S)-1-(1,4-dioxo-1,2,3,4-tetrahydro-phthalazin-6-ylcarbamoyl)-2-phenyl-ethyl]-acrylamide] as the compound, how does the Ki read?
**A.** 33.9 nM

**Q.** `O=C(/C=C/c1cc(Cl)ccc1-n1cnnn1)N[C@@H](Cc1cccc(F)c1)C(=O)Nc1ccc(-c2nnn[nH]2)cc1` [Example 43, (E)-3-(5-chloro-2-tetrazol-1-yl-phenyl)-N-{(S)-2-(3-fluoro-phenyl)-1-[4-(1H-tetrazol-5-yl)-phenylcarbamoyl]-ethyl}-acrylamide] was tested. Which Ki did it give?
**A.** 1.61 nM

**Q.** For `CN1CCN(C(=O)C[C@H](NC(=O)/C=C/c2cc(Cl)ccc2-n2cnnn2)C(=O)Nc2ccc(C(=O)O)cc2)CC1` [Example 45, 4-[(S)-2-[(E)-3-(5-chloro-2-tetrazol-1-yl-phenyl)-acryloylamino]-4-(4-methyl-piperazin-1-yl)-4-oxo-butyrylamino]-benzoic acid], which Ki is on record?
**A.** 33.4 nM

**Q.** Which Ki does the source give for `CC[C@H](NC(=O)/C=C/c1cc(Cl)ccc1-n1cnnn1)C(=O)Nc1ccc(NC(=O)OC)cc1` [Example 50, (4-{(S)-2-[(E)-3-(5-chloro-2-tetrazol-1-yl-phenyl)-acryloylamino]-butyrylamino}-phenyl)-carbamic acid methyl ester] here?
**A.** 1120 nM

**Q.** For `O=C(/C=C/c1cc(Cl)ccc1-n1cnnn1)N[C@@H](Cc1ccccc1)C(=O)Nc1ccc2c(c1)CCNC2` [Example 53, (E)-3-(5-chloro-2-tetrazol-1-yl-phenyl)-N—[(S)-2-phenyl-1-(1,2,3,4-tetrahydro-isoquinolin-6-ylcarbamoyl)-ethyl]-acrylamide], which Ki is on record?
**A.** 244 nM

**Q.** `O=C(/C=C/c1cc(Cl)ccc1-n1cnnn1)N[C@@H](Cc1ccccc1)C(=O)Nc1nc2ccc(F)cc2s1` [Example 97, (S,E)-3-(5-chloro-2-(1H-tetrazol-1-yl)phenyl)-N-(1-(6-fluorobenzo[d]thiazol-2-ylamino)-1-oxo-3-phenylpropan-2-yl)acrylamide] was tested. Which Ki did it give?
**A.** 533 nM

**Q.** `O=C(/C=C/c1cc(Cl)ccc1-n1cnnn1)N[C@@H](Cc1ccccc1)C(=O)Nc1ccc(N2CCSCC2)cc1` [Example 99, (S,E)-3-(5-chloro-2-(1H-tetrazol-1-yl)phenyl)-N-(1-oxo-3-phenyl-1-(4-thiomorpholinophenylamino)propan-2-yl)acrylamide, TFA salt] was tested. Which Ki did it give?
**A.** 1480 nM

**Q.** Which Ki does the source give for `COC(=O)c1ccc(NC(=O)[C@H](Cc2ccccc2)NC(=O)/C=C/c2cc(Cl)ccc2-n2cnnn2)nc1` [Example 103, (S,E)-methyl 6-(2-(3-(5-chloro-2-(1H-tetrazol-1-yl)phenyl)acrylamido)-3-phenylpropanamido)nicotinate, TFA salt] here?
**A.** 112 nM

**Q.** With `O=C(/C=C/c1cc(Cl)ccc1-n1cnnn1)N[C@@H](Cc1ccccc1)C(=O)Nc1ccc2c(c1)C(=O)NC2` [Example 129, (S,E)-3-(5-chloro-2-(1H-tetrazol-1-yl)phenyl)-N-(1-oxo-1-(3-oxoisoindolin-5-ylamino)-3-phenylpropan-2-yl)acrylamide] as the compound, how does the Ki read?
**A.** 67.9 nM

**Q.** How did the Ki turn out when `O=C(/C=C/c1cc(Cl)ccc1-n1cnnn1)N[C@@H](Cc1ccccc1)C(=O)Nc1n[nH]c2ncccc12` [Example 137, (S,E)-N-(1-(1H-pyrazolo[3,4-b]pyridin-3-ylamino)-1-oxo-3-phenylpropan-2-yl)-3-(5-chloro-2-(1H-tetrazol-1-yl)phenyl)acrylamide, TFA salt] was run?
**A.** 53.9 nM

**Q.** How did the Ki turn out when `COP(=O)(CCOC(=O)Nc1ccc(NC(=O)[C@H](Cc2ccccc2)NC(=O)/C=C/c2cc(Cl)ccc2-n2cnnn2)cc1)OC` [Example 171, (S,E)-2-(dimethoxyphosphoryl)ethyl 4-(2-(3-(5-chloro-2-(1H-tetrazol-1-yl)phenyl)-acrylamido)-3-phenylpropanamido)phenylcarbamate] was run?
**A.** 38.1 nM
